According to ChEMBL document CHEMBL1201862, “PubChem BioAssay data set” (2004):
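How tested: cells in 96-well plates exposed to compound for 48 hours at five concentrations. At the GI50, growth is halved.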 Activity calls are given as the source filed them. Cut-off read from the data, not from the text of the source: active = GI50 up to about 1.1 µM and inactive = higher.

What was measured:
Experiment in all cases: inhibition of tumour cell growth, NCI panel, 48 h
K562 = test system: K562
OVCAR-5 = test system: OVCAR-5
HCT-116 = test system: HCT-116
KM12 = test system: KM12
IGROV-1 = test system: IGROV-1
OVCAR-4 = test system: OVCAR-4
CCRF-CEM = test system: CCRF-CEM
SW-620 = test system: SW-620
EKVX = test system: EKVX
CAKI-1 = test system: CAKI-1
PC-3 = test system: PC-3
NCI/ADR-RES = test system: NCI/ADR-RES
M14 = test system: M14
T47D = test system: T47D
SN12C = test system: SN12C
SK-MEL-2 = test system: SK-MEL-2
SK-MEL-28 = test system: SK-MEL-28
COLO 205 = test system: COLO 205
NCI-H522 = test system: NCI-H522

Measured: GI50

Cc1c2c(n3c(nc4ccccc43)c1C#N)SCC2
inactive: K562 > 10 µM | OVCAR-5 > 10 µM | HCT-116 > 10 µM | KM12 > 10 µM | IGROV-1 > 10 µM | OVCAR-4 > 10 µM | CCRF-CEM > 10 µM | SW-620 > 10 µM | EKVX > 10 µM | CAKI-1 > 10 µM | PC-3 > 10 µM | NCI/ADR-RES > 10 µM | M14 > 10 µM | T47D > 10 µM | SN12C > 10 µM | SK-MEL-2 > 10 µM | SK-MEL-28 > 10 µM

O=C(O)CCC(NC(=O)c1ccc(Nc2nc3ccc(C(F)(F)F)cc3nc2C(=O)O)cc1)C(=O)O (configuration not stated)
inactive: K562 > 100 µM | OVCAR-5 > 100 µM | COLO 205 > 100 µM | HCT-116 > 100 µM | KM12 > 100 µM | IGROV-1 > 100 µM | CCRF-CEM > 100 µM | NCI-H522 > 100 µM | SW-620 > 100 µM | EKVX > 100 µM | PC-3 > 100 µM | NCI/ADR-RES > 100 µM | M14 > 100 µM | T47D > 100 µM | SN12C > 100 µM | SK-MEL-2 > 100 µM

CC(=O)OCC1OC(n2c(-c3ccccc3)c(/N=N/c3ccc(C)cc3)c(C)c(C#N)c2=S)C(OC(C)=O)C(OC(C)=O)C1OC(C)=O (configuration not stated)
inactive: K562 5.69 µM | OVCAR-5 23.7 µM | COLO 205 23.1 µM | HCT-116 3.26 µM | KM12 8.28 µM | OVCAR-4 5.87 µM | CCRF-CEM 11 µM | SW-620 2.31 µM | CAKI-1 22.9 µM | PC-3 > 10 µM | NCI/ADR-RES 7.35 µM | M14 3.16 µM | T47D 59.8 µM | SN12C 6.35 µM | SK-MEL-2 20.7 µM | SK-MEL-28 26.4 µM

O=C(O)CSc1nc2ccccc2[nH]1
inactive: K562 > 100 µM | OVCAR-5 > 100 µM | HCT-116 > 100 µM | KM12 > 100 µM | IGROV-1 > 100 µM | OVCAR-4 > 100 µM | NCI-H522 > 100 µM | SW-620 > 100 µM | EKVX > 100 µM | CAKI-1 > 100 µM | PC-3 > 100 µM | NCI/ADR-RES > 100 µM | M14 > 100 µM | T47D > 100 µM | SN12C > 100 µM | SK-MEL-2 74.1 µM | SK-MEL-28 > 100 µM

C=CCOc1ccc(N)c([N+](=O)[O-])c1
inactive: K562 > 100 µM | OVCAR-5 > 100 µM | COLO 205 > 100 µM | HCT-116 > 100 µM | KM12 > 100 µM | IGROV-1 > 100 µM | CCRF-CEM > 100 µM | NCI-H522 63.4 µM | SW-620 > 100 µM | EKVX > 100 µM | CAKI-1 > 100 µM | PC-3 > 100 µM | NCI/ADR-RES > 100 µM | M14 > 100 µM | T47D > 100 µM | SN12C > 100 µM | SK-MEL-2 > 100 µM | SK-MEL-28 > 100 µM

COc1ccc2oc(=N)c(C(=O)Nc3ccccn3)cc2c1
inactive: K562 > 100 µM | OVCAR-5 > 100 µM | COLO 205 > 100 µM | HCT-116 > 100 µM | KM12 > 100 µM | IGROV-1 53.6 µM | OVCAR-4 > 100 µM | CCRF-CEM > 100 µM | SW-620 > 100 µM | EKVX 62.4 µM | CAKI-1 > 100 µM | PC-3 > 100 µM | NCI/ADR-RES > 100 µM | M14 > 100 µM | T47D 37 µM | SN12C > 100 µM | SK-MEL-2 23.2 µM | SK-MEL-28 > 100 µM

SC1=C2CCCCCC2=NC2(CCCCCC2)S1
inactive: K562 12.2 µM | OVCAR-5 30.5 µM | COLO 205 17.7 µM | HCT-116 26.9 µM | KM12 18.4 µM | IGROV-1 44.1 µM | OVCAR-4 16.9 µM | CCRF-CEM 33.6 µM | SW-620 32.3 µM | EKVX 5.62 µM | CAKI-1 31.5 µM | PC-3 27.5 µM | NCI/ADR-RES 26.5 µM | M14 35.2 µM | T47D 17.4 µM | SN12C 37.3 µM | SK-MEL-2 6.3 µM | SK-MEL-28 72.9 µM

CCOC(=O)Cc1[nH]c(C(=O)c2ccccc2)cc1C(=O)c1ccccc1
inactive: K562 > 10 µM | OVCAR-5 > 10 µM | COLO 205 21.7 µM | HCT-116 17.5 µM | KM12 48.9 µM | IGROV-1 > 10 µM | OVCAR-4 18.3 µM | CCRF-CEM > 10 µM | NCI-H522 52.5 µM | SW-620 > 100 µM | EKVX > 100 µM | PC-3 > 10 µM | NCI/ADR-RES > 100 µM | M14 88.1 µM | T47D 17.7 µM | SN12C > 100 µM | SK-MEL-2 39 µM | SK-MEL-28 > 10 µM

CC(NNC(=O)c1ccncc1)c1ccccc1 (configuration not stated)
inactive: K562 > 100 µM | OVCAR-5 > 100 µM | COLO 205 > 100 µM | HCT-116 > 100 µM | KM12 > 100 µM | IGROV-1 > 100 µM | OVCAR-4 > 100 µM | CCRF-CEM > 100 µM | SW-620 > 100 µM | EKVX > 100 µM | CAKI-1 > 100 µM | PC-3 > 100 µM | NCI/ADR-RES > 100 µM | M14 > 100 µM | T47D > 100 µM | SN12C > 100 µM | SK-MEL-2 > 100 µM | SK-MEL-28 > 100 µM

O=C1/C(=C\c2ccc(Br)cc2)CCCc2ccccc21
inactive: K562 41.8 µM | OVCAR-5 38.6 µM | COLO 205 17.9 µM | HCT-116 12.4 µM | KM12 15.6 µM | IGROV-1 16.4 µM | OVCAR-4 12.3 µM | CCRF-CEM 19.7 µM | SW-620 16.9 µM | EKVX 17.5 µM | CAKI-1 29.3 µM | PC-3 20.3 µM | NCI/ADR-RES 13.4 µM | M14 29.6 µM | T47D 10.5 µM | SN12C 16.5 µM | SK-MEL-2 19.1 µM | SK-MEL-28 18.9 µM

O=C1c2cc(O)c(O)cc2O[C@H](c2ccc(O)c(O)c2)[C@H]1O
inactive: K562 > 100 µM | OVCAR-5 > 100 µM | COLO 205 > 100 µM | HCT-116 > 100 µM | KM12 > 100 µM | IGROV-1 > 100 µM | CCRF-CEM 68.4 µM | NCI-H522 > 100 µM | SW-620 > 100 µM | EKVX > 100 µM | CAKI-1 > 100 µM | PC-3 > 100 µM | NCI/ADR-RES > 100 µM | M14 > 100 µM | T47D > 100 µM | SN12C > 100 µM | SK-MEL-2 > 100 µM | SK-MEL-28 > 100 µM
